Common to all, as to type: cell-based
In one test the test system is hPBMCs. Kind of test: Lymphocyte proliferation assay (T-cell proliferation of normal hPBMCs). To be noted: Homo sapiens, tritiated thymidine. The source says: The assay method was designed as in references, The Journal of Immunology, 153, 1-9, (1994), and Clinical and Diagnostic Laboratory Immunology, 7, 687-692, (2000), the disclosure of which is incorporated by reference for the teaching of the assay.
hPBMCs were obtained from healthy donors by centrifugation of heparinized venous blood over Ficoll/Hypaque solution (Histopaque-1077, Sigma, USA). Isolated hPBMCs were suspended in RPMI 1640 culture medium supplemented with 10% FBS and seeded at a density of 50,000 cells/well in a 96-well plate (Nunc, USA). The cells were incubated at 37° C., 5% CO2 for a period of 24 h. These cells were used for the lymphocyte proliferation as well as cytokine release assay.
The plated cells were treated with different concentrations of the test compound (prepared as 20 mM stock in DMSO and diluted with DMSO to achieve the following final concentrations in the assay: 100, 10, 1, 0.1, 0.01, 0.001 and 0.0001 μM) and were incubated for 30 min. The cells were then stimulated with 5 ng/mL PMA (Sigma, USA, prepared as 100 μg/mL stock in RPMI and was diluted to 5 ng/mL) and 5 μg/mL PHA (Sigma, USA, prepared as a 1 mg/mL stock in RPMI). The plates were incubated at 37° C., 5% CO2 for 48 h. The cells were treated overnight with 0.1 μCi of tritiated thymidine per well (obtained from BARC, India; prepared as stock of 1 mCi/mL) and was diluted in KRPH buffer to 10 μCi/mL and […] and was added per well to obtain a final concentration 0.1 μCi/well) and at the end of 48 h, the anti-proliferative effect of the compound was measured using the following formula: […]
Controls consisted of hPBMCs with PHA and PMA (Stimulated), hPBMCs with RPMI (Un-stimulated), hPBMCs with FK506 (positive control, Sigma, USA, prepared as 20 mM stock in DMSO and diluted with DMSO to achieve the following final concentrations in the assay: 100, 10, 1, 0.1, 0.01, 0.001 and 0.0001 μM).

Test [1] concerns IL-6. Kind of test: Screening in LPS stimulated THP-1 cells: IL-6. To be noted: Homo sapiens, 24 h, ELISA. How it is done: (§1) IL-6 (BD Biosciences, USA) production by LPS (Escherchia coli 0127:B8, Sigma, USA) in THP-1 cells (ATCC number: TIB202) was designed as in reference, Journal of Immunology, 151, 5631-5638, (1993), the disclosure of which is incorporated by reference for the teaching of the assay.
(§2) THP-1 cells were cultured in RPMI 1640 culture medium (Gibco BRL, UK) containing 100 U/mL penicillin and […] streptomycin, (100× solution, Sigma, USA) containing 10% FBS (JRH Biosciences, USA). 25,000 cells were seeded per well in 96-well plate (Nunc, USA). The cells were differentiated with PMA (Sigma, USA, prepared as 100 μg/mL stock in RPMI and was diluted to 5 ng/mL). The test compound (prepared as 20 mM stock in DMSO and diluted with DMSO to achieve the following final concentrations in the assay: 100, 10, 1, 0.1, 0.01, 0.001 and 0.0001 μM) or vehicle (0.5% DMSO) were added to the cells and the cells were incubated for 30 min at 37° C. LPS (Sigma, USA, prepared as 1 mg/mL stock in PBS) was added to achieve a final concentration of 1 μg/mL. Plates were incubated at 37° C. for 24 h at 5% CO2. Supernatants were harvested, and assayed for TNF-α and IL-6 by ELISA as described by the manufacturer (BD Biosciences, USA). Percent inhibition of cytokine release compared to the control was calculated. The IC50 values were calculated by a nonlinear regression method.

The test system of test [2] is TNF-α. Kind of test: Screening in LPS stimulated THP-1 cells: TNF-α. To be noted: Homo sapiens, 24 h, ELISA. How it is done: as §1, §2
Background: An ELISA detects its analyte on a solid surface through an enzyme-linked reagent.

In test [3] the test system is TNF-α. Kind of test: Human monocyte assay (LPS-induced): TNF-α. To be noted: LPS stimulated human monocytes, 5 h. The source says:
(§3) The assay was designed as in reference, Physiological Research, 52, 593-598, (2003), the disclosure of which is incorporated by reference for the teaching of the assay.
(§4) The objective of the assay is to determine whether compounds of the present invention—mediated inhibition of LPS-induced cytokines from monocytic THP-1 cell line translates to physiologically relevant human cells. Accordingly, the effect of compounds of the present invention on LPS—induced cytokine production from freshly isolated human monocytes was ascertained.
Peripheral blood was collected from healthy donors into potassium EDTA vacutainer tubes (BD Biosciences, USA). hPBMCs were isolated using density gradient separation (Histopaque-1077; Sigma, USA) and suspended in assay medium which is RPMI culture medium (Sigma, USA) containing 10% heat inactivated FBS (JRH Biosciences, Australia), 100 U/mL penicillin (Sigma, USA) and […] streptomycin (Sigma, USA). Monocytes in the hPBMCs were counted using a Coulter Counter following which the cells were resuspended at 2×10^5 monocytes/mL of assay medium. A cell suspension containing 2×10^4 monocytes was aliquoted per well of a 96-well plate (Nunc, USA). Subsequently, the hPBMCs were incubated for 4-5 h at 37° C., 5% CO2. […] The IC50 values were calculated by a nonlinear regression method using Graph Pad software (Prism 3.03).

Test [4] concerns IL-6. The test is described as follows: Human monocyte assay (LPS-induced): IL-6. To be noted: LPS stimulated human monocytes, 5 h.
Description: as §3, §4
Peripheral blood was collected from healthy donors into potassium EDTA vacutainer tubes (BD Biosciences, USA). hPBMCs were isolated using density gradient separation (Histopaque-1077; Sigma, USA) and suspended in assay medium which is RPMI culture medium (Sigma, USA) containing 10% heat inactivated FBS (JRH Biosciences, Australia), 100 U/mL penicillin (Sigma, USA) and […] streptomycin (Sigma, USA). Monocytes in the hPBMCs were counted using a Coulter Counter following which the cells were resuspended at 2×10^5 monocytes/mL of assay medium. A cell suspension containing 2×10^4 monocytes was aliquoted per well of a 96-well plate (Nunc, USA). Subsequently, the hPBMCs were incubated for 4-5 h at 37° C., 5% CO2. During the incubation, the monocytes adhered to the bottom of 96-well plate. Following the incubation, the non-adherent lymphocytes were washed and assay medium was added to adherent monocytes. After 48 h of incubation at 37° C., 5% CO2, monocytes were pre-treated with various concentrations of test compound (prepared as 20 mM stock in DMSO; 1 μL of […] concentrated solution of test compound was dissolved in 200 μL cell suspension to achieve a final concentration of 0.03, 0.1, 0.3, 1, 3, 10, 30 and 100 μM) or vehicle (0.5% DMSO) or 10 μM dexamethasone (standard IL-6 and TNF-α inhibitor, Sigma, USA) for 30 min at 37° C., 5% CO2 and stimulated with 1 μg/mL LPS (Escherchia coli 0111:B4, Sigma, USA). The cells were then incubated for 5 h at 37° C., 5% CO2 following which supernatants were collected, stored at −70° C. and were assayed later for IL-6, and TNF-α by ELISA (OptiEIA ELISA sets, BD Biosciences, USA). The IC50 values were calculated by a nonlinear regression method using Graph Pad software (Prism 3.03).

Read-outs that look alike come from different tables or passages of the source.

`C=CC[C@@H]1/C=C(\C)C[C@H](C)C[C@H](OC)[C@H]2O[C@@](O)(C(=O)C(=O)N3CCCC[C@H]3C(=O)O[C@H](/C(C)=C/[C@@H]3CC[C@@H](O)[C@H](OC)C3)[C@H](C)[C@@H](O)CC1=O)[C@H](C)C[C@@H]2OC` [FK506, reference compound]: the IC50 with hPBMCs (hPBMCs stimulated with PMA and PHA, read-out: Stimulated hPBMC's IC50 (inhibition of cell proliferation)) was less than 0.001 µM; in the test with hPBMCs (unstimulated hPBMCs, read-out: Unstimulated hPBMC's IC50 (inhibition of cell proliferation)) it was 2 µM.
Take `C/C=C/C(O)C(C)/C=C/C(=O)C(C)C(O)C(C)C1OC(=O)/C(OC)=C/C(C)=C/C(C)C(O)C(CC)C(O)C(C)C/C(C)=C/C=C/C1OC` (stereo not drawn) [Compound of example 6, (3Z,5E,13E,15E)-18-((6E,10E)-3,9-Dihydroxy-4,8-dimethyl-5-oxododeca-6,10-dien-2-yl)-9-ethyl-8,10-dihydroxy-3,17-dimethoxy-5,7,11,13-tetramethyloxacyclooctadeca-3,5,13,15-tetraen-2-one]: the IC50 is 0.1 µM in the test with IL-6 [1], more than 100 µM in the test on TNF-α [2], 5 µM with TNF-α [3] and 0.6 µM in the test with IL-6 [4].

(Values after patent publication US20120225889A1, “USE OF MACROCYCLIC LACTONE DERIVATIVES FOR THE TREATMENT OF INFLAMMATORY DISORDERS” (PIRAMAL LIFE SCIENCES LIMITED, priority 2010, published 2012).)
